The text below walks through data of patent publication US5310728A, “Method for treating corneal endothelial wounds” (Chiron Ophthalmics, Inc., priority 1992, dated 1994).

“Also recorded” adds a separate entry of the source.

The subject of experiment [1] is bovine corneal endothelial cells (BCEC). Briefly: Stimulation of BCEC DNA synthesis by recombinant peptide growth factors (tritiated thymidine). The experiment is classed as cell-based. To be noted: for Stimulation of DNA synthesis of BCEC (in words): serum-free CDM, FIG. 5; for Relative potency as mitogen for BCEC (in words): absence of other added serum components, ten peptide growth factors compared, EGF first, TGF-α second. As to the method:
Pure cultures of BCEC were established from freshly obtained cow eyes by trypsin treatment of the endothelial surface. Early passage cultures were trypsinized and seeded into 24 well plates as described above. After the cells had been synchronized by serum deprivation, BCEC were cultured in CDM containing tritiated thymidine and solutions of peptide growth factors produced by recombinant DNA technology. Radioactivity incorporated into DNA was measured as described previously.

The subject of experiment [2] is fibroblasts. The following applies: in vitro; Haigler & Carpenter 1980; cited from earlier work.
The test system of experiment [3] is endothelial cell division. As to the kind of experiment: Intraocular injection of TGF-α solution in a patient with endothelium failure. The experiment is classed as in vivo. The following applies: 100 μg/ml in buffered saline, 0.1 ml per injection into the anterior chamber, single or series. As to the method:
A patient is diagnosed as requiring a corneal implant due to endothelium failure as a result of such conditions as Fuch's dystrophy or a marginal endothelial count either prior to or after cataract surgery. As an alternative to transplant surgery, the patient undergoes a single or series of intraocular injections of a solution of TGF-α in buffered saline. The concentration of the TFG-α is 100 μg/ml and 0.1 ml of solution are injected into the anterior chamber per injection.

On to nerve growth factor, for which the “Stimulation of DNA synthesis of BCEC (in words)” value (shortened to “Stimulation”) in experiment [1] is “failed to stimulate DNA synthesis”.

For platelet-derived growth factor, the “Stimulation” value in experiment [1] is listed as “failed to stimulate DNA synthesis”.

Regarding epidermal growth factor [EGF], the “Minimum exposure time to induce fibroblasts to divide” value in experiment [2] was at least 6 h. Also, the “Relative potency as mitogen for BCEC (in words)” value in experiment [1] is “second only to EGF in potency”.

As to “transforming growth factor alpha [TGF-α]”, the “Relative potency as mitogen for BCEC (in words)” value in experiment [1] is recorded as “very potent mitogen for BCEC; also recorded: potent mitogen”. Further, in experiment [3], the “Effect of injections on endothelial cell division” value was “enhance endothelial cell division”.

For the substance multiplication stimulating activity, the “Stimulation” value in experiment [1] is listed as “failed to stimulate DNA synthesis”.
